Experiment [1] concerns GL-26 glioma cells. Kind of experiment: Propidium iodide cell cycle analysis by flow cytometry. The format is cell-based, murine (C57BL/6). The settings on record: SBP 48 hours. The protocol: GL-26 cells were plated at 4000 cells/well in a 96 well plate in GL-26 media (DMEM/F12 supplemented with 10% FCS, 1% penicillin/streptomycin, 1% L-glutamine and 1% non-essential amino acids). The cells were treated 1 day post-plating with 0.1-25 μM SBP for 48 hours. The cells were then detached with Trypsin/EDTA (Cellgro), washed and resuspended at 500,000 cells/ml in ice cold Na+/K+ balanced PBS and fixed by gently adding 70% ethanol and incubating for 2 hrs at 4° C. GL-26 cells were then resuspended in 300-500 μl PI/Triton X-100 staining solution: 10 ml of 0.1% (v/v) Triton X-100 (Sigma) in Na+/K+ balanced PBS with 2 mg DNAse-free RNAse A (Sigma) and 0.40 ml of 500 μg/ml PI (Roche). The stain was allowed to incubate at 37° C. for 15 minutes before acquisition on a BD FacsCanto II flow cytometer.

Experiment [2] has as its system human foreskin fibroblasts (HFFs). In words: SRB toxicity assay on human foreskin fibroblasts. The format is cell-based. Particulars: Fibroblast. How it is done:
(§1) The murine (C57BL/6) glioma cell line, GL-26, which is highly tumorigenic in the C57BL/6 mice. GL-26 cells were cultured in DMEM/F12 supplemented with 10% FCS, 1% penicillin/streptomycin, 1% L-glutamine and 1% non-essential amino acids. Human foreskin fibroblasts (HFFs) were cultured in DMEM/F12 supplemented with 10% FCS and 1% penicillin/streptomycin. Primary murine astrocytes were purified from C57BL/6 neonate brains and cultured in DMEM/F12 supplemented with 10% FCS, 1% non-essential amino acids, 1% Lglutamine, 50 IU/ml penicillin, […] and 10 mM Hepes buffer.
(§2) The sulforhodamine B (SRB) cytotoxicity assays were adapted from Skehan et al. (22). Briefly, either HFF, primary astrocytes or GL-26 cells were plated in 96-well plates at a density of 4,000 cells/well in a volume of 100 µL overnight at 37° C. and 5% CO2. DMSO stock solutions of SBP, MSBP or TMZ were used at a concentration range of 0.1-25 μM for 48 hr before the supernatant was discarded and the cells were fixed for 1 hr with 10% cold trichloroacetic acid (100 μL, per well). Cells used in recovery assay received fresh media for 48 hrs following the 48 hr drug incubation. The plate was then washed 5 times with de-ionized water, air dried, and stained with 0.4% SRB for 10 min (50 μL, per well). After washing 5 times in 1% acetic acid and air-drying, bound SRB was dissolved in 10 mM unbuffered Tris base (pH 10.5; 100 μL, per well). Bound SRB was then read by absorbance at 492 nm on a SpectraMax plate reader (Molecular Devices). The percent survival was then calculated based upon the absorbance values relative to control wells (0 μM SBP in 0.1% DMSO).
(In general: In SRB staining, fixed cells bind dye roughly in proportion to their protein.)

For experiment [3], the system named is A549 and H1703 lung cancer lines, and 886LN, Tu212, and Tu686 head/neck cancer lines. The settings on record: head-neck and lung tumor lines; cited from earlier work.
For experiment [4], the system named is GL-26 glioma cells. In words: SRB recovery assay (48 hr drug, then 48 hr fresh media). The class given is cell-based, murine (C57BL/6). The settings on record: 48 hr drug + 48 hr recovery. The protocol: as §2
To test if constant SBP administration is necessary to maintain growth inhibition, an SRB recovery assay was performed where GL-26 cells were plated and treated as above, but SBP was removed after a 48-hour incubation and replaced by fresh media. […]

The test system of experiment [5] is A549 lung cancer cells. In words: SRB colorimetric assay, A549 lung cancer cells, 72 hours. The class given is cell-based, human. Particulars: Homo sapiens; A549, 72 hours, average ± SD of three curves. The protocol: A549 cells were cultured in RPMI media supplemented with 10% Fetal Bovine Serum and 1% nonessential amino acids. Sub-culturing was carried out every 3-4 days and was completed by removing the supernatant media and treating the adherent cells with 1.0 mL of a 0.25% (w/v) Trypsin/0.5 mM EDTA solution. The cells were then treated for approximately 3 minutes in a 37° C. incubator under a 5% CO2 atmosphere. Trypsinization was stopped by the addition of 7.0 mL of cell culture media, the suspended cells were collected by centrifugation, and the resulting cell pellet was re-suspended in fresh cell culture media. The cells were then diluted 1:4 by volume and incubated in a 37° C. incubator with 5% CO2. Cells were grown to 80-90% confluency prior to being used in the SRB colorimetric assays.
To test the effects of compounds 1-18 on the growth of A549 lung cancer cells, SRB cytotoxicity assays were done as described by Skehan et al. Cells were maintained in RPMI media as described above, collected, and diluted so that cells could be seeded in 96-well plates at a density of 4,000 cells/well. The 96-well plate was incubated overnight at 37° C. under a 5% CO2 atmosphere. Subsequently, sterifiltered DMSO stock solutions of the drugs were added to the wells in various concentrations (0-25 μM) and the 96-well plate was incubated at 37° C. under a 5% CO2 for an additional 72 hours. The supernatant cell culture medium was then removed and the cells were fixed for 1 hour with 10% cold trichloroacetic acid (100 μL per well). The trichloroacetic acid was discarded and the plates were washed 5 times with de-ionized water and air dried. After being stained with 0.4% SRB ([…]) and incubated at room temperature for 10 minutes, the cells were washed 5 times with 1% acetic acid and air dried. The bound SRB was dissolved in 10 mM unbuffered Tris, pH 10.5 ([…]) for 10 minutes at room temperature, and the absorbance at 492 nm was measured using a microplate reader. The percent cell growth was then calculated based upon the absorbance values relative to control samples not containing any drug. Each drug concentration was done in triplicate to yield a percent growth vs. drug concentration curve, and these growth curves were subsequently repeated two additional times. The growth curves from the three experiments were then plotted in GraphPad Prism and best-fit curves were used to generate the IC50 values for each curve.

Experiment [6] relates to GL-26 glioma cells. Kind of experiment: SRB growth assay, GL-26 glioma cells, 48 hr drug incubation. The class given is cell-based, murine (C57BL/6). Particulars: for IC50: SRB, read-out: IC50 against GL-26 tumor cells. The protocol: as §1, §2

Like-named read-outs stand apart in the source and are kept apart here.

As usually defined, the inhibition is how much of the control response was suppressed. As a reminder, the IC50 is the concentration at which inhibition is half-maximal. For `CCC(C)c1ccc2ccc3ccc(C(C)CC)nc3c2n1` (centres unmarked) [Compound 1, 2,9-di-sec-butyl-1,10-phenanthroline], the “cell cycle effect (propidium iodide)” value in experiment [1] was “not arrested in the G1 phase”. The inhibition at 6 µM in experiment [2] (6 μM, 48 hours, read-out: HFF growth inhibition) was ~20%; in experiment [6] (Mus musculus, GL26, 6 μM, read-out: GL-26 cell growth inhibition) it was 66 ± 1%. Besides, the inhibition at 25 µM in experiment [2] (25 μM, 48 hours, read-out: HFF growth inhibition) amounted to 36.9 ± 1.3%; in experiment [6] (Mus musculus, GL26, 25 μM, read-out: GL-26 cell growth inhibition), 67 ± 0.5%. For the same molecule, the concentration for half-maximal inhibition (IC50) in experiment [2] (not reached at 25 μM, read-out: IC50 on non-cancerous human fibroblast cells) is > 25000 nM; in experiment [5], 420 ± 170 nM; in experiment [6] (Mus musculus, GL26, 48 h), 3000 to 6000 nM; in experiment [6] (listed as SBP), 3000 nM. The “IC50 times lower than cisplatin” value in experiment [3] is given as 20-100 times. Further, the “IC50 times lower than the parent gold(III) complex” value in experiment [3] was 4-14 times. The “in-vitro IC50 values” in experiment [3] is listed as “in the nanomolar concentration regime”. The “GL-26 cell growth inhibition 48 hours after completion of treatment” value in experiment [4] (0.8 mM SBP (so in the source)) is 31.5±6.6%. Further, the “GL-26 cell growth inhibition after extra incubation period” value in experiment [4] (1.6-25 mM SBP (so in the source)) is listed as “up to 85.4±0.2%”.

These data come from patent publication US20150125550A1, “APPLICATION OF 2,9-DI-SEC-BUTYL-1,10-PHENANTHROLINE AS A GLIOBLASTOMA TUMOR CHEMOTHERAPY” (priority 2013, published 2015).
